Columns and labels:
serum insulin = assay: Insulin Inhibition In Dogs (L-alanine infusion, serum insulin by radioimmunoassay); type: in vivo, dog
Experimental: (§1) B. Insulin and Glucagon Inhibition In Dogs:
(§2) A normal dog is fasted overnight. An intravenous (I.V.) infusion of the test compound (dissolved in saline) is begun. Thirty minutes thereafter an additional infusion of L-alanine (dissolved in saline) is begun and is continued for a total of 15 minutes so that a total dose of about 1 mmole of L-alanine per kg. body weight is given. Infusion of the test compound is continued for an additional 15 minute period.
(§3) Blood samples are taken periodically before (at -20, -10 and -1 minutes) and after (5, 10, 15, 30, 35, 40, 45, 50, 60, 90, 120 and 150 minutes) the start of the infusion of the test compound. The serum insulin and serum glucagon concentrations in the blood are determined by radioimmunoassay. A plot is made of the glucagon and insulin concentrations versus time. The plot obtained from the test compound is compared to plots obtained from somatostatin and saline (controls) in similar experiments.
(§4) Infusion of L-alanine (in the absence of somatostatin or active test compound) causes an abrupt increase in serum insulin and glucagon concentrations. The concentrations return to basal levels after the L-alanine infusion is terminated.

[1] = system: growth hormone (GH) secretion; assay: Growth Hormone Inhibition In Rats (pentobarbital-stimulated GH secretion, serum GH by radioimmunoassay); type: in vivo; set-up: Serum Growth Hormone Conc. Mean ± SEM: unit not given here; conditions: male rats; for % Inhibition of GH release (as compared to saline controls): 20 minutes; for Serum Growth Hormone Conc. Mean ± SEM: with sodium pentobarbital 4 mg/rat I.P., blood 20 minutes later
Experimental: A. Growth Hormone Inhibition In Rats:
This test is a modification of the method of P. Brazeau et al. Endocrinology, 94, 184 (1974). Male rats (weighing 100-110 g.) are divided into three groups of eight rats each. Each rat is administered sodium pentobarbital at a dose of 4 mg/rat (I.P.) to stimulate growth hormone (GH) secretion. Simultaneously, one group of rats receives the test compound (S.C.); the second group receives somatostatin (S.C.); and the third group (control) receives saline (S.C.). Twenty-minutes later, the animals are decapitated and blood samples are collected. The serum concentration of growth hormone (GH) is determined by radioimmunoassay. The mean GH concentration (± standard error of the mean) is calculated for each group. The percent inhibition of GH release (as compared to saline controls) is then calculated for the test compound and for somatostatin. When tested as above-described, the peptide of Example 4, (D-Ala^2, D-Ala^5, Cha^6, D-Trp^8, D-Val^10 -somatastatin) representative of the peptides of Formula III, gave the results set forth below in Table I: […]

serum glucagon = assay: Glucagon Inhibition In Dogs (L-alanine infusion, serum glucagon by radioimmunoassay); type: in vivo, dog
Experimental: as §1, §2, §3, §4

[2] = dog, I.V. infusion alone (no L-alanine)
[3] = dog, I.V. infusion in the presence of L-alanine
[4] = normal fasted dog, I.V. infusion at doses of 0.195 and 0.230 μg/Kg/min, L-alanine infusion

Compound | effect on basal serum concentration of insulin (serum insulin; [2]) | effect on increase in insulin concentration induced by L-alanine (serum insulin; [3]) | % Inhibition of GH release (as compared to saline controls) ([1]; dose 2 (mg/kg) S.C.) | % Inhibition of GH release (as compared to saline controls) ([1]; dose 50 (mg/kg) S.C.) | effect on basal serum concentration of glucagon (serum glucagon; [2]) | effect on increase in glucagon concentration induced by L-alanine (serum glucagon; [3]) | inhibition of insulin concentration (serum insulin; [4]) | Serum Growth Hormone Conc. Mean ± SEM ([1]; dose 2 (mg/kg) S.C.) | Serum Growth Hormone Conc. Mean ± SEM ([1]; dose 50 (mg/kg) S.C.) | inhibition of glucagon concentration (serum glucagon; [4])
C[C@H](N)C(=O)NCC(=O)N[C@H]1CSSC[C@@H](C(=O)O)NC(=O)[C@H](CO)NC(=O)[C@H]([C@@H](C)O)NC(=O)[C@H](Cc2ccccc2)NC(=O)[C@H]([C@@H](C)O)NC(=O)[C@H](CCCCN)NC(=O)[C@H](Cc2c[nH]c3ccccc23)NC(=O)[C@H](Cc2ccccc2)NC(=O)[C@H](Cc2ccccc2)NC(=O)[C@H](CC(N)=O)NC(=O)[C@H](CCCCN)NC1=O [Somatostatin] | causes a decrease | inhibits the increase | 22% | 64% | causes a decrease | inhibits the increase | – | – | – | –
L-Alanyl-D-alanyl-L-cysteinyl-L-lysyl-D-alanyl-L-cyclohexylalanyl-L-phenylalanyl-D-tryptophyl-L-lysyl-D-valyl-L-phenylalanyl-L-threonyl-L-seryl-L-cysteine cyclic (3->14) disulfide [Example 4] | – | – | 36% | 73% | – | – | no significant inhibition | 71.6 ± 29.5 | 29.8 ± 18.6 | no significant inhibition

Reference: patent publication US4199501A, “Peptides related to somatostatin” (Eli Lilly and Company, priority 1978, dated 1980)
